15 compounds from EP4635950A1, “NOVEL CRYSTAL FORM OF GLP-1 RECEPTOR AGONIST, METHOD FOR PREPARING SAME, PHARMACEUTICAL COMPOSITION THEREOF, AND USE THEREOF” (Hangzhou Zhongmeihuadong Pharmaceutical Co., Ltd., priority 2022, dated 2024) can be followed below.

Common to all, as to type: physicochemical
Series [1] can be described thus: Crystal form change on heating in the DSC test.
A short description of series [2]: Crystal form stability on drying or sealed storage. An excerpt:
The 4 metastable crystal forms described in Example 4 had lower crystal form stability than each crystal form described in Example 3.

Series [3] in a line: Hygroscopicity by dynamic vapor sorption (DVS) at 25°C.
Series [4] is described as follows: High-humidity stability at 90% RH (HPLC purity, crystal form). The settings on record: for Purity (% Area) / purity decrease: 90% RH. The text has this:
[table] […] Table E-5: Results of High-Humidity Stability Determination

The nature of series [5]: Equilibrium solubility, 24 hours at 37°C in 4 media, with XRPD of residual solid. The settings on record: for Crystal Form: XRPD. On the procedure:
After 24 hours, samples were taken and centrifuged for separation. The obtained solids were tested by XRPD, and the supernatants were filtered for solubility testing.

Series [6] is described as follows: High-temperature stability at 60°C (HPLC purity, crystal form). The following applies: for Purity (% Area) / purity decrease: 60°C. An excerpt:
[table] […] Table E-4: Results of High-Temperature Stability Determination

Series [7] in a line: Solid-state stability under long-term and accelerated conditions (HPLC purity, crystal form). The settings on record: for Purity (% Area) / purity decrease: 10 days. An excerpt:
[table] […] Table E-3: Results of Solid-State Stability Determination

Series [8] is described as follows: Suspension competition test of Crystal Form A and Crystal Form G. The settings on record: Crystal Form A and Crystal Form G in EtOH and a mixture of MeOH and water, room temperature and 50°C.
A short description of series [9]: Pressure stability at 1000 Mpa for 5 minutes (HPLC purity, crystal form). An excerpt: [table] […] Table E-6: Results of Pressure Stability Determination
Where [10] appears, read: heated to 120 °C for 10 minutes.

Values after ≈ are worked out from the molar mass of the structure shown. “Also recorded” adds a separate entry of the source. Some results are limits rather than exact numbers.

Take `O=C(O)c1ccc2nc(CN3CCC(c4cccc(OCc5ccc(C6COC6)cc5F)n4)CC3)n(C[C@@H]3CCO3)c2c1` [Crystal Form Ix, (S)-2-((4-(6-((2-fluoro-4-(oxetan-3-yl)benzyl)oxy)pyridin-2-yl)piperidin-1-yl)methyl)-1-(oxetan-2-ylmethyl)-1H-benzo[d]imidazole-6-carboxylic acid]: in series [1] (setting [10]), the “crystal form change on heating” value is “converts into an amorphous form”.
The same measure, in the same setting: as for `O=C(O)c1ccc2nc(CN3CCC(c4cccc(OCc5ccc(C6COC6)cc5F)n4)CC3)n(C[C@@H]3CCO3)c2c1` [Crystal Form J, (S)-2-((4-(6-((2-fluoro-4-(oxetan-3-yl)benzyl)oxy)pyridin-2-yl)piperidin-1-yl)methyl)-1-(oxetan-2-ylmethyl)-1H-benzo[d]imidazole-6-carboxylic acid], the entry is “transforms into an amorphous form”.
As for `O=C(O)c1ccc2nc(CN3CCC(c4cccc(OCc5ccc(C6COC6)cc5F)n4)CC3)n(C[C@@H]3CCO3)c2c1` [Crystal Form H, (S)-2-((4-(6-((2-fluoro-4-(oxetan-3-yl)benzyl)oxy)pyridin-2-yl)piperidin-1-yl)methyl)-1-(oxetan-2-ylmethyl)-1H-benzo[d]imidazole-6-carboxylic acid], the “crystal form change after drying” value in [2] (dried at 50°C for 2 hours) is listed as “transforms into a weakly crystalline state; also recorded: showed a weak crystalline state”.
As for `O=C(O)c1ccc2nc(CN3CCC(c4cccc(OCc5ccc(C6COC6)cc5F)n4)CC3)n(C[C@@H]3CCO3)c2c1` [Crystal Form O, (S)-2-((4-(6-((2-fluoro-4-(oxetan-3-yl)benzyl)oxy)pyridin-2-yl)piperidin-1-yl)methyl)-1-(oxetan-2-ylmethyl)-1H-benzo[d]imidazole-6-carboxylic acid], in series [1] (setting [10]), the “crystal form change on heating” value is on record as “transforms into an amorphous form”.
As to `O=C(O)c1ccc2nc(CN3CCC(c4cccc(OCc5ccc(C6COC6)cc5F)n4)CC3)n(C[C@@H]3CCO3)c2c1` [Crystal Form E, (S)-2-((4-(6-((2-fluoro-4-(oxetan-3-yl)benzyl)oxy)pyridin-2-yl)piperidin-1-yl)methyl)-1-(oxetan-2-ylmethyl)-1H-benzo[d]imidazole-6-carboxylic acid], the “crystal form change on heating” value in series [1] (setting [10]) is given as “converts into an amorphous form”.
Turning to `O=C(O)c1ccc2nc(CN3CCC(c4cccc(OCc5ccc(C6COC6)cc5F)n4)CC3)n(C[C@@H]3CCO3)c2c1` [Crystal Form P, (S)-2-((4-(6-((2-fluoro-4-(oxetan-3-yl)benzyl)oxy)pyridin-2-yl)piperidin-1-yl)methyl)-1-(oxetan-2-ylmethyl)-1H-benzo[d]imidazole-6-carboxylic acid], the “crystal form change after drying” value in series [2] (dried at 50°C for 3.5 hours) is reported as “transforms into an amorphous form; also recorded: convert into an amorphous form”.
In the case of `O=C(O)c1ccc2nc(CN3CCC(c4cccc(OCc5ccc(C6COC6)cc5F)n4)CC3)n(C[C@@H]3CCO3)c2c1` [Crystal Form D, (S)-2-((4-(6-((2-fluoro-4-(oxetan-3-yl)benzyl)oxy)pyridin-2-yl)piperidin-1-yl)methyl)-1-(oxetan-2-ylmethyl)-1H-benzo[d]imidazole-6-carboxylic acid], the “crystal form change on heating” value in series [1] (setting [10]) is “converts into an amorphous form”.
`O=C(O)c1ccc2nc(CN3CCC(c4cccc(OCc5ccc(C6COC6)cc5F)n4)CC3)n(C[C@@H]3CCO3)c2c1` [Crystal Form G, (S)-2-((4-(6-((2-fluoro-4-(oxetan-3-yl)benzyl)oxy)pyridin-2-yl)piperidin-1-yl)methyl)-1-(oxetan-2-ylmethyl)-1H-benzo[d]imidazole-6-carboxylic acid]: in series [3], the “Sample Weight Change at 80% RH (%)” value is on record as 0.73%. Further, the “crystal form change after drying” value in series [2] (dried at 50°C for 3 hours) is “no crystal form change is observed”. Besides, the “Purity (% Area)” value in series [4] (1 Day) came out at 97.67 % Area; in series [4] (10 days) it was 96.53 % Area; in [6] (1 day), 97.55 % Area; in series [6] (10 days) it was 96.63 % Area; in [7] (25°C/60%RH), 97.37 % Area; in series [7] (40°C/75%RH), 97.43 % Area. The “Purity (% Area)” value in [9] (1000 Mpa, 5 min) was 97.65 % Area. Further, the purity decrease result in [4] (1 day) was “about 0.1%”; in series [4] (10 days) it was “about 1.3%”; in [6] (1 day), “about 0.3%”; in series [6] (10 days), “about 1.2%”; in series [7] (accelerated conditions (40°C/75% RH)), “about 0.4%”; in series [7] (long-term conditions (25°C/60% RH)) it was “about 0.4%”. Also, in series [9] (1000 Mpa, 5 min), the purity decrease entry is recorded as “about 0.2%”. Further, the “Initial Purity (% Area)” value in series [4] (initial, before storage) was 97.81 % Area; in series [6] (initial, before storage), 97.81 % Area; in series [7] (initial, before storage), 97.81 % Area; in series [9] (initial, before pressing) it was 97.81 % Area. Besides, in [5] (24 h in FaSSGF), the “Whether the Crystal Form Changed” value is “YES”. Besides, the “Solubility after 24 h” value in series [5] (FaSSGF) is less than 10 µg/mL; in series [5] (FaSSIF) it was 80 µg/mL (≈ 136 µM); in [5] (FeSSIF), 270 µg/mL (≈ 460 µM). Also, the “Crystal Form” value in [5] (solid after 24 h in FaSSGF) is on record as “a hydrochloride salt was formed”; in series [5] (solid after 24 h in FaSSIF) it was “Crystal Form G”; in series [5] (solid after 24 h in FeSSIF) it was “Crystal Form G”; in [5] (solid after 24 h in H2O), “Crystal Form G”. Further, the crystal form change entry in series [7] (before and after testing, long-term and accelerated conditions) is recorded as “no crystal form change was observed”. Also, in series [8], the “outcome of suspension competition test” value is “thermodynamically more stable”.
Regarding `O=C(O)c1ccc2nc(CN3CCC(c4cccc(OCc5ccc(C6COC6)cc5F)n4)CC3)n(C[C@@H]3CCO3)c2c1` [Crystal Form K, (S)-2-((4-(6-((2-fluoro-4-(oxetan-3-yl)benzyl)oxy)pyridin-2-yl)piperidin-1-yl)methyl)-1-(oxetan-2-ylmethyl)-1H-benzo[d]imidazole-6-carboxylic acid], in series [1] (heated to 110 °C for 10 minutes), the “crystal form change on heating” value is “transforms into an amorphous form”.
For the compound `O=C(O)c1ccc2nc(CN3CCC(c4cccc(OCc5ccc(C6COC6)cc5F)n4)CC3)n(C[C@@H]3CCO3)c2c1` [Crystal Form M, (S)-2-((4-(6-((2-fluoro-4-(oxetan-3-yl)benzyl)oxy)pyridin-2-yl)piperidin-1-yl)methyl)-1-(oxetan-2-ylmethyl)-1H-benzo[d]imidazole-6-carboxylic acid], the “crystal form change on heating” value in series [1] (heated to 105 °C for 10 minutes) is “transforms into an amorphous form”.
Regarding `O=C(O)c1ccc2nc(CN3CCC(c4cccc(OCc5ccc(C6COC6)cc5F)n4)CC3)n(C[C@@H]3CCO3)c2c1` [Crystal Form F, (S)-2-((4-(6-((2-fluoro-4-(oxetan-3-yl)benzyl)oxy)pyridin-2-yl)piperidin-1-yl)methyl)-1-(oxetan-2-ylmethyl)-1H-benzo[d]imidazole-6-carboxylic acid], the “crystal form change after storage” value in series [2] (sealed conditions at room temperature for 21 days) was “transforms into Crystal Form D; also recorded: transformed into stable Crystal Form D”.
`O=C(O)c1ccc2nc(CN3CCC(c4cccc(OCc5ccc(C6COC6)cc5F)n4)CC3)n(C[C@@H]3CCO3)c2c1` [Crystal Form B, (S)-2-((4-(6-((2-fluoro-4-(oxetan-3-yl)benzyl)oxy)pyridin-2-yl)piperidin-1-yl)methyl)-1-(oxetan-2-ylmethyl)-1H-benzo[d]imidazole-6-carboxylic acid]: the “crystal form change after drying” value in [2] (dried at 50°C for 3 hours) is given as “transforms into an amorphous form; also recorded: convert into an amorphous form”.
Turning to `O=C(O)c1ccc2nc(CN3CCC(c4cccc(OCc5ccc(C6COC6)cc5F)n4)CC3)n(C[C@@H]3CCO3)c2c1` [Crystal Form L, (S)-2-((4-(6-((2-fluoro-4-(oxetan-3-yl)benzyl)oxy)pyridin-2-yl)piperidin-1-yl)methyl)-1-(oxetan-2-ylmethyl)-1H-benzo[d]imidazole-6-carboxylic acid], the “crystal form change on heating” value in series [1] (setting [10]) was “transforms into an amorphous form”.
As for `O=C(O)c1ccc2nc(CN3CCC(c4cccc(OCc5ccc(C6COC6)cc5F)n4)CC3)n(C[C@@H]3CCO3)c2c1` [Crystal Form C, (S)-2-((4-(6-((2-fluoro-4-(oxetan-3-yl)benzyl)oxy)pyridin-2-yl)piperidin-1-yl)methyl)-1-(oxetan-2-ylmethyl)-1H-benzo[d]imidazole-6-carboxylic acid], in series [1] (heated to 110°C for 5 minutes), the “crystal form change on heating” value is recorded as “transforms into an amorphous form”.
Consider `O=C(O)c1ccc2nc(CN3CCC(c4cccc(OCc5ccc(C6COC6)cc5F)n4)CC3)n(C[C@@H]3CCO3)c2c1` [Crystal Form N, (S)-2-((4-(6-((2-fluoro-4-(oxetan-3-yl)benzyl)oxy)pyridin-2-yl)piperidin-1-yl)methyl)-1-(oxetan-2-ylmethyl)-1H-benzo[d]imidazole-6-carboxylic acid], for which the “crystal form change on heating” value in [1] (setting [10]) is “transforms into an amorphous form”.
